Earlier results in patent US20070266895A1, “Aliphatic Hydrocarbon Soluble Red Dyes” (priority 2004, published 2007).

Cc1ccccc1/N=N/c1ccc(/N=N/c2c(O)ccc3ccccc23)c(C)c1 [C.I. Solvent Red 24]
direct solubility in essentially aliphatic hydrocarbon based fuels (diesel or home heating oil): virtually no direct solubility | direct solubility in aromatic hydrocarbon containing gasolines (dry powder dye): limited direct solubility
